Measured values from US20230101687A1, “SYNTHETIC TISSUE BARRIERS AND USES THEREOF” (Massachusetts Institute of Technology, priority 2019, published 2023).

What was measured:
[1] = target: endogenous catalase (CAT) (Sus scrofa, UniProt O62839); settings: of 35 porcine tissue sites
CAT = CAT (Homo sapiens, UniProt P04040)
Procedure: To confirm the reliability of the porcine-based TPA-positive tissue map described above for potential human trials, fresh resected tissue specimens from humans were tested for compatibility with TPA technology. Similar to the porcine TPA-map study, human tissue specimens were incubated with the TPA solution containing M1, and subsequently CAT-accelerated chromogenic M1 assembly was characterized.

Sequence of CAT (P04040 2-527 limits assumed): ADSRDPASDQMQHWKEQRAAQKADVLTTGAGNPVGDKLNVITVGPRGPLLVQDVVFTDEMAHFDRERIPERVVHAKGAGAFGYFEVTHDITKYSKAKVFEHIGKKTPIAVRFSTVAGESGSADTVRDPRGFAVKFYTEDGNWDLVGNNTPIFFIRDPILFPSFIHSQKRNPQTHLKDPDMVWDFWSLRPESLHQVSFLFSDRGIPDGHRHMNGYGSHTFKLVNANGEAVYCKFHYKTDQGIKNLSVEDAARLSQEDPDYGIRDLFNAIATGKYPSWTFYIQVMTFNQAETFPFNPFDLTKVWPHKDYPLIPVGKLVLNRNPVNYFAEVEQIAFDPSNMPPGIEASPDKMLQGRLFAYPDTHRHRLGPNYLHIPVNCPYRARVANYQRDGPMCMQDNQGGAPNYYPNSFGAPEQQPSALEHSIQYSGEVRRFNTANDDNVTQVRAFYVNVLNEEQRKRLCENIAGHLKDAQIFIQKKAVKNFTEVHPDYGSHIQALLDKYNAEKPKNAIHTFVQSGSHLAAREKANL
Sequence of endogenous catalase (CAT) (O62839 2-527 limits assumed): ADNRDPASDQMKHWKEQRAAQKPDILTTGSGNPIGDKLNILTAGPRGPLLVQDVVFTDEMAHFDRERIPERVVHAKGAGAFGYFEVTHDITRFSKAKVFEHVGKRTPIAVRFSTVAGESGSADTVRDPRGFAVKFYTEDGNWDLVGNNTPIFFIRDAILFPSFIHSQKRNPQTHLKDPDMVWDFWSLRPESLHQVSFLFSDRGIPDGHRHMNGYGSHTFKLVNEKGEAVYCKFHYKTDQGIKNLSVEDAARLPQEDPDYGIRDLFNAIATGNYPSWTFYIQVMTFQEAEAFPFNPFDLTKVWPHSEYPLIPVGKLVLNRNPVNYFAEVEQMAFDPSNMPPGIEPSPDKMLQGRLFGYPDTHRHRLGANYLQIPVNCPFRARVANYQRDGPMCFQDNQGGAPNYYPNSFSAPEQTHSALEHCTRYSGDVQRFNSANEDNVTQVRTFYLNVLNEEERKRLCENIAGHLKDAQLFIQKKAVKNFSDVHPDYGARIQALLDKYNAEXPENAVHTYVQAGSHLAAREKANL

tissue sites with no obvious PDA signal increase [1]: 9 tissue sites | tissue sites with significantly increased PDA levels (P<0.05) ([1]; dopamine plus hydrogen peroxide): 26 tissue sites | time to 95% completion of M1 assembly formation (CAT; all human tissue types tested): 4 to 23 min
Compound: NCCc1ccc(O)c(O)c1 [Monomer M1, dopamine]
adhesion of assemblies on human tissues (CAT; cartilage, buccal, tongue, blood): stably adhered M1 assemblies were observed
